Measurements: patent publication US6359196B1, “Germination-specific plant promoters” (priority 1999, dated 2002)

Legend:
[1] = system: barley cystatin-1 gene promoter; experiment: Transient expression in barley aleurone protoplasts, cys1 promoter deletion constructs fused to β-glucuronidase, normalised to luciferase; type: cell-based; conditions: 1 μM phytohormone, 40-hour incubation at 20° C.; β-glucuronidase activity divided by luciferase activity
Procedure: Barley aleurone protoplasts were prepared as described in Example 4, and separate protoplast aliquots were co-transfected with plasmid pAHC18 carrying the luciferase gene under control of the gene promoter derived from a constitutively expressed maize ubitiquitin gene (Bruce et al., 1989, Proc. Natl. Acad. Sci. USA 86:9692-9696), and one of the eight expression plasmids containing 5' deletions of the cystatin-1 gene promoter, as described above. The molar concentration of pAHC 18 was half of that of the reporter plasmid directing expression of β-glucuronidase. Incubation of the protoplasts with 1 μM gibberellic acid or 1 μM abscisic acid were performed in order to analyse possible, regulative effects of the phytohormones on […] gene expression, and identify the location of possible hormone responsive cis-acting gene elements. After a 40-hour incubation at 20° C., the protoplasts were harvested and the level of β-glucuronidase and luciferase activities determined as described by Leah et al. (1994, supra). The relative β-glucuronidase activity in individual samples was calculated by dividing the measured activity by the measured luciferace activity, thereby allowing differences in transformation efficiency to be corrected for.

[2] = system: barley α-glucosidase gene promoter; experiment: Transient expression in barley aleurone protoplasts, constructs with the α-glucosidase gene promoter; type: cell-based; conditions: protoplasts incubated in the presence of gibberellic acid, 25° C., 40 hours
Source text: It is possible to evaluate the expression levels directed by the barley α-glucosidase gene promoter by several methods. One such method is by transient expression assays performed with protoplasts prepared from aleurone layers of the barley cultivar Himalaya. This approach is not only used to evaluate the ability of different promoters to function in barley endosperm-derived tissues, including the aleurone tissue, but also to determine whether an expressed protein is secreted from the plant cell or whether the protein remains in the cell cytoplasm.
Protoplasts are transfected with a gene cassette of interest and incubated to allow the introduced gene to be expressed, and the corresponding protein allowed to accumulate in the cell or in the surrounding liquid medium. Following incubation at 25° C. for 40 hours in the presence or absence of gibberellic acid, the cells and the growth medium are assayed for the presence of the protein encoded by the transgene in order to determine the efficiency of the promoter which drives transgene expression.
A protocol for the preparation and transfection of barley aleurone protoplasts has been published by Skriver et al., (1991, supra). […]

SMILES	relative expression of β-glucuronidase [1]	activity derived from heterologously expressed enzymes [2]
CC1=CC(=O)CC(C)(C)[C@@]1(O)/C=C/C(C)=C\C(=O)O [abscisic acid]	increased	
C=C1C[C@]23C[C@@]1(O)CC[C@H]2[C@@]12C=C[C@H](O)[C@@](C)(C(=O)O1)[C@H]2[C@@H]3C(=O)O [gibberellic acid]	slight depression	enhanced levels of activity
